Key:
[1] = target: T1, human EphB4 receptor (Homo sapiens, UniProt P54760); assay: EphB4 kinase assay on recombinant Ephrin B4 receptor domains (33P filter assay); type: biochemical
T1 construct: made in house; host or cells: Sf9 or Sf21 insect cells (baculovirus)
T1 sequence (P54760 566-987): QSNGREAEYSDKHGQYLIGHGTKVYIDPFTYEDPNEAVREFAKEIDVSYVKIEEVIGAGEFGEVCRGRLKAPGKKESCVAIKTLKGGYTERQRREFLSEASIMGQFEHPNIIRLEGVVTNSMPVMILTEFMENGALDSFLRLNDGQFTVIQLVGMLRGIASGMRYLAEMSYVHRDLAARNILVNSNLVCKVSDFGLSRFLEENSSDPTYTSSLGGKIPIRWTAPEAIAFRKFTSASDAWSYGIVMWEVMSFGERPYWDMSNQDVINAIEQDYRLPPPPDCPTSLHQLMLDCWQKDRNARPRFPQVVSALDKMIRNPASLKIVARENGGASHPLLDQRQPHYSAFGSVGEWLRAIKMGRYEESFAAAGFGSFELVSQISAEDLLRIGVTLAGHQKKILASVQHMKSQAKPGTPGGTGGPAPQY
From the text: Recombinant baculovirus are generated that express the amino acid region 566-987 of the human EphB4 receptor (SwissProt Database, Accession No. P54760). GST sequence is cloned into pFastBac1® vector (Invitrogen Life Technologies, Basel, Switzerland) and PCR amplified. cDNAs encoding EphB4-receptor domains, respectively are cloned in frame 3′prime to the GST sequence into this modified FastBac1 vector to generate pBac-to-Bac™ donor vectors. Single colonies arising from the transformation are inoculated to give overnight cultures for small scale plasmid preparation. […] By automated sequencing the inserts and approximately 50 bp of the flanking vector sequences are confirmed on both strands.
Production of viruses: Viruses for each of the kinases are made according to the protocol supplied by GIBCO if not stated otherwise. In brief, transfer vectors containing the kinase domains are transfected into the DH10Bac cell line (GIBCO) and plated on selective agar plates. […]
Purification of GST-tagged kinases: The centrifuged cell lysate is loaded onto a 2 mL glutathione-sepharose column (Pharmacia) and washed three times with 10 mL of 25 mM Tris-HCl, pH 7.5, 2 mM EDTA, 1 mM DTT, 200 mM NaCl. […] Membranes are counted after drying at ambient temperature, mounting in Packard TopCount96-well frame, and addition of 10 μL/well of Microscint™ (Packard). […]

[2] = target: T2, human EphB4 (Homo sapiens, UniProt P54760); assay: EphB4 receptor autophosphorylation sandwich ELISA in transfected A375 human melanoma cells; type: cell-based; settings: EphB4 receptor auto-phosphorylation in vitro on cells
T2 construct: expressed in transfected cells; host or cells: A375 human melanoma cells (ATCC CRL-1619)
T2 sequence (P54760 16-987): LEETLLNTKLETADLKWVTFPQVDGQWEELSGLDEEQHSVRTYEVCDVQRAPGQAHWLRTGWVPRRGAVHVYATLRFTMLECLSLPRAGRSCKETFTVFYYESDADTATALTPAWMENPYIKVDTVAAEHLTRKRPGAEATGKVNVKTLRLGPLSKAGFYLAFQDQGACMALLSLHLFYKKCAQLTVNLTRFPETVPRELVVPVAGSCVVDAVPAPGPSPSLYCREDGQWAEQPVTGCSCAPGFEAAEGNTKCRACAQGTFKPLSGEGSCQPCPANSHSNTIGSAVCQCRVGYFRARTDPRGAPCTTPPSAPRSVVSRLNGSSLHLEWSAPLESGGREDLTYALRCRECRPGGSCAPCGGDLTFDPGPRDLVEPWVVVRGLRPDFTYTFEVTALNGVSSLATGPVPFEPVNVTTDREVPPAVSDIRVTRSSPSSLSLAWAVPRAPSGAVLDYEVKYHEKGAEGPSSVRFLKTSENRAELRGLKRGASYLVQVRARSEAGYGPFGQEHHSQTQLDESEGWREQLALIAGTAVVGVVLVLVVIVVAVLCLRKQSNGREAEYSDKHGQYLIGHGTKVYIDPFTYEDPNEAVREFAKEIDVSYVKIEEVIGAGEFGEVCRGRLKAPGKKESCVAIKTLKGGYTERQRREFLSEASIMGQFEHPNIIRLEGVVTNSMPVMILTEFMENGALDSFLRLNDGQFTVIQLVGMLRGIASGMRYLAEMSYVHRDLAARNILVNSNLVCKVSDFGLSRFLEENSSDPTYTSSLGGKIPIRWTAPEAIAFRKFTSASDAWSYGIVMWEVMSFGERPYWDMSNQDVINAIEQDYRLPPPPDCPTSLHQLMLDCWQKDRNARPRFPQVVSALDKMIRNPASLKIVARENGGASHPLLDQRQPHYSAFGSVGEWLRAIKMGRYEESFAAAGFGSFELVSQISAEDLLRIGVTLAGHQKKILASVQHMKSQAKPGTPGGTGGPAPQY
Procedure: Alternatively, EphB4 receptor autophosphorylation can be measured as follows: The inhibition of EphB4 receptor autophosphorylation can be confirmed with an in vitro experiment in cells such as transfected A375 human melanoma cells (ATCC Number: CRL-1619), which permanently express human EphB4 (SwissProt AccNo P54760), are seeded in complete culture medium (with 10% fetal calf serum ═FCS) in 6-well cell-culture plates and incubated at 37° C. under 5% CO2 until they show about 90% confluency. The compounds to be tested are then diluted in culture medium (without FCS, with 0.1% bovine serum albumin) and added to the cells. (Controls comprise medium without test compounds). Ligand induced autophosphorylation is induced by the addition of 1 microg/ml soluble ephrinB2-Fc (s-ephrinB2-Fc: R&D Biosystems, CatNr 496-EB) and 0.1 microM ortho-vanadate. After a further 20 minutes incubation at 37° C., the cells are washed twice with ice-cold PBS (phosphate-buffered saline) and immediately lysed in 200 μl lysis buffer per well. The lysates are then centrifuged to remove the cell nuclei, and the protein concentrations of the supernatants are determined using a commercial protein assay (PIERCE). The lysates can then either be immediately used or, if necessary, stored at −20° C. […]

[3] = target: T3, c-Abl kinase (Homo sapiens, UniProt P00519); assay: c-Abl protein-tyrosine kinase filter binding assay; type: biochemical
T3 construct: The His-tagged kinase domain of c-Abl is cloned and expressed in the baculovirus/Sf9 system; His; made in house; host or cells: Sf9 insect cells (baculovirus)
T3 sequence (P00519 242-493 limits assumed): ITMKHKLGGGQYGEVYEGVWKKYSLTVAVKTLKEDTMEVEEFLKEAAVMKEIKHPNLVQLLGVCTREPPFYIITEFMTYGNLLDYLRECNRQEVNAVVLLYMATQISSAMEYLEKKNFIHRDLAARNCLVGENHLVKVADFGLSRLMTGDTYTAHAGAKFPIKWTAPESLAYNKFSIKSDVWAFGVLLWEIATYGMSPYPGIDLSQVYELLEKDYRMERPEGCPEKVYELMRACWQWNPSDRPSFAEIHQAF
Procedure: The His-tagged kinase domain of c-Abl is cloned and expressed in the baculovirus/Sf9 system as described by Bhat et al. in J. Biol. Chem. 1997; 272:16170-16175. A protein of 37 kD (c-Abl kinase) is purified by a two-step procedure over a Cobalt metal chelate column followed by an anion exchange column with a yield of 1-2 mg/L of Sf9 cells (Bhat et al., reference cited). The purity of the c-Abl kinase is >90% as judged by SDS-PAGE after Coomassie blue stai-ning. The assay contains (total volume of 30 μL): c-Abl kinase (50 ng), 20 mM Tris.HCl, pH 7.5, 10 mM MgCl2, 10 μM Na3VO4, 1 mM DTT and 0.06 μCi/assay [γ33 P]-ATP (5 μM ATP) using 30 μg/mL poly-Ala, Glu, Lys, Tyr-6:2:5:1 (Poly-AEKY, Sigma P1152) in the presence of 1% DMSO. Reactions are terminated by adding 10 μL of 250 mM EDTA and 30 μL of the reaction mixture is transferred onto Immobilon-PVDF membrane (Millipore, Bedford, Mass., USA) previously soaked for 5 min with methanol, rinsed with water, then soaked for 5 min with 0.5% H3PO4 and mounted on vacuum manifold with disconnected vacuum source. After spotting all samples, vacuum is connected and each well rinsed with 200 μL 0.5% H3PO4. […] Membranes are counted after drying at ambient temperature, mounting in Packard TopCount 96-well frame, and addition of 10 μL/well of Microscint™ (Packard).

Row | EphB4 IC50 [1] | EphB4 ELISA - IC50 [2] | c-Abl IC50 [3] | SMILES
1 | 1 to 1000 nM | 1 to 1000 nM | 1 to 1000 nM | COc1ccc(-c2cnn3c(N)c(-c4ccc(F)cc4)c(CN4CCNCC4)nc23)cc1OC [Example 2, 3-(3,4-Dimethoxy-phenyl)-6-(4-fluoro-phenyl)-5-piperazin-1-ylmethyl-pyrazolo[1,5-a]pyrimidin-7-ylamine]
2 | 1 to 1000 nM | 1 to 1000 nM | 1 to 1000 nM | COc1ccc(-c2cnn3c(N)c(-c4cccc(Cl)c4)c(CN4CCNCC4)nc23)cc1OC [Example 1, 6-(3-Chloro-phenyl)-3-(3,4-dimethoxy-phenyl)-5-piperazin-1-ylmethyl-pyrazolo[1,5-a]pyrimidin-7-ylamine]

— patent publication US20080234284A1, “Pyrazolo[1,5-a]Pyrimidin-7-Yl Amine Derivatives as Protein Kinase Inhibitors” (priority 2005, published 2008)
